Patent US9012420B2, “Aptamer for chymase, and use thereof” (Ribomic Inc., priority 2009, dated 2015)
Oligonucleotides are written 5' to 3', each unit as a sugar letter and its base; * is a phosphorothioate linkage, no mark a phosphodiester; rarer units and linkages stand in square brackets, end groups in braces. Plain capitals give the bases only. r = 2'-OH (RNA); f = 2'-fluoro

T1: LTBP-1 degradation by chymase (Homo sapiens, UniProt P23946)
T1 sequence (P23946 22-247): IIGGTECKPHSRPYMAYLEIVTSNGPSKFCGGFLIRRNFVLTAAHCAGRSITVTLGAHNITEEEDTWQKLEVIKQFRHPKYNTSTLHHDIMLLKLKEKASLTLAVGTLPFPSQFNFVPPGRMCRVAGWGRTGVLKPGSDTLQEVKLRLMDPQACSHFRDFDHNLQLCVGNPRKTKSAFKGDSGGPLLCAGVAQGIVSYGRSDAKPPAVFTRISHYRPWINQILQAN

T2: chymase (Homo sapiens, UniProt P23946)
T2 sequence (P23946 22-247): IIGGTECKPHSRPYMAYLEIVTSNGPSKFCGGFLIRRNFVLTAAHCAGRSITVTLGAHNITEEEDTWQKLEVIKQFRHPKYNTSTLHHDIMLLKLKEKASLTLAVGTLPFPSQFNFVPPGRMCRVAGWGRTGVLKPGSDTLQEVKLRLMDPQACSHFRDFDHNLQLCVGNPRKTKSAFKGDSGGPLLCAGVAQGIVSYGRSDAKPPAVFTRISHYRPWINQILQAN

B1: 4 (nucleic acid)
chain: rGrGrGrAfCrGrGfUrArGrGrArAfUfUfCrGfUfCfCrAfUfUfCfUrAfCrArGrAfUrArGrArGrAfUrArArArGfUrArGrArAfUfUfUrArAfCrArArArAfCrAfUrArGrArArGrArGfCrGrGfCfCrGfC
modifications: aptamer
B2: 14 (nucleic acid)
chain: rGrGrGrAfCrGrGfUrArGrGrArAfUfUfCfUfCrGfUfUfCfCfUrGrAfCrArGfCrAfUfUfUrGrArGrAfUrArGrAfUfUfUrArArAfCrArArAfCrGfCrAfCrAfUrArGrArArGrArGfCrGrGfCfCrGfC
modifications: aptamer
B3: 13 (nucleic acid)
chain: rGrGrGrAfCrGrGfUrArGrGrArAfUfUfCfCrGfCrArAfCfCrAfUfCfCfCrGfUrArAfCfUrAfUrGrGfUfUrArGrAfUrArGrArGfUfUrArArArArAfCfCrAfUrArGrArArGrArGfCrGrGfCfCrGfC
modifications: aptamer

Tests used:
[1] = biological target: T1, LTBP-1 degradation by chymase; assay: LTBP-1 degradation inhibitory activity, NHLF culture supernatant, Western blotting; assay type: biochemical; design: key: +: detection of a band with the same level of density as an LTBP-1 band in the control; −: absence of detection of LTBP-1 band as clear as that of the negative control; conditions: final nucleic acid concentration 5 μM, chymase 10 ng/mL (0.33 nM), 37° C. 1 hr; visual determination of LTBP-1 band
Description: A third method of evaluation employs a native substrate contained in a cell culture supernatant. Here, degradation of chymase substrate LTBP-1 is detected by Western blotting. NHLF cells (manufactured by Cambrex Bio Science) under freezing are rapidly thawed in a 37° C. water bath, and then suspended in a medium (10% FBS/F-12). After centrifugation at 1200 rpm for 5 minutes, the resulting supernatant is removed, and the cells are re-suspended in the medium. Total volume of 10 mL medium is added to the centrifuged cells, and the cell suspension is transferred to a cell culture dish and cultured at 37° C. in the presence of 5% CO2. The cells are observed morphology and proliferation status under a microscope. When the cells become confluent, the medium is replaced with a serum-free medium (0.2% BSA/F-12). Two days after replacement of the medium, the culture supernatant is collected, dispensed, and stored under freezing at −30° C.
After 40 μL of the NHLF culture supernatant, freshly thawed before use, is dispensed to a tube, 5 μL of the nucleic acid solution diluted with solution C is added thereof. For positive control, chymostatin is diluted with solution C, and this dilution is added in the same manner. For negative control, solution C alone is added. Next, 5 μL of a 100 ng/mL dilution of chymase in solution E (solution C+0.1% BSA, 0.05% sodium azide) is added. For control, a chymase-free tube is prepared. After stirring, the sample is incubated at 37° C. for 1 hour, and mixed with an equal volume of lysis buffer for electrophoresis to terminate the reaction. LTBP-1 in the sample is detected by the procedure of Western blotting described below.
The sample mixed in the lysis buffer is boiled for 3 minutes, and 10 μL of the sample is subjected to electrophoresis on 5-20% acrylamide gel. After completion of the electrophoresis, the sample is transferred onto a nitrocellulose filter, after which the filter is blocked with 5% skimmed milk, 50 mM Tris-HCl (pH 8.0), and 0.05% sodium azide. The filter is reacted with a 2 μg/mL dilution of anti-LTBP-1 monoclonal antibody in 2% BSA, PBS, and 0.05% sodium azide at room temperature overnight. […]
As determined according to LTBP-1 band density and position (molecular weight), the band from the chymase-free well serves for positive control (+), and the band from the negative control well serves for negative control (−). […]
Chymase is deeply involved in the activation of TGF-β, which is one of the important factors causing fibrosis. […] Whether the nucleic acid of the present invention has an inhibitory activity against LTBP-1 degradation by chymase was assessed by the method shown below. […]

chymase = biological target: T2, chymase; assay: Surface plasmon resonance (Biacore T100), aptamer immobilized on SA chip, chymase injected as analyte; assay type: binding; design: key: ++: a sequence that binds to chymase significantly more strongly than the negative control 40N; +: a sequence that binds to chymase equivalently compared with the negative control 40N; conditions: Table 1; about 1000 RU nucleic acid immobilized, chymase 0.2 μM analyte, running buffer solution A; compared with 40N
Method in brief: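 Aptamer captured on streptavidin SA chip via 5′-biotin 16-nt poly dT (~1500 RU), and 20 μL of 0.2 μM chymase injected as analyte. Running buffer Solution A for SEQ ID NO: 4-20 and 22-34, Solution C for SEQ ID NO: 38-48. Random 30- or 40-nt RNA served as negative control.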

Molecule	inhibitory activity on LTBP-1 degradation [1]	Binding activity as determined using Biacore (chymase)
56 (GGGUUAGAUAGAGUUAAAAACCC; 2'-fluoro at CU, RNA at AG, backbone not given here) [compound 56]	+	
58 (GGGUUGAAGAUAUUAAAGAACCC; 2'-fluoro at CU, RNA at AG, backbone not given here) [compound 58]	−	
CC(C)C[C@H](NC(=O)[C@@H](NC(=O)N[C@@H](Cc1ccccc1)C(=O)O)[C@@H]1CCN=C(N)N1)C(=O)N[C@H](C=O)Cc1ccccc1 [chymostatin, reference compound]	+	
GGGU(F)U(F)GAAGAU(F)AU(F)U(F)AAAGAAC(F)C(F)C(F) (GGGUUGAAGAUAUUAAAGAACCC; 2'-fluoro at CU, RNA at AG, backbone not given here) [SEQ ID NO: 58]	−	
B1		++
B2		++
B3		++
